Source: ChEMBL document CHEMBL4359934, “Green chemistry appended synthesis, metabolic stability and pharmacokinetic assessment of medicinally important chromene dihydropyrimidinones” (Bioorg Med Chem Lett, 2019)
≈ marks a conversion by molar mass, not a printed value. One block for each molecule: values may come before it.

How the values were obtained:
[1] = Ratio of drug level in blood to plasma (unknown origin) at 500 nM incubated for 60 mins by LC-MS/MS analysis; assay type: ADME, cell-free; conditions: blood and plasma
[2] = Ratio of drug level in blood to plasma (unknown origin) at 500 nM incubated for 15 mins by LC-MS/MS analysis; assay type: ADME, cell-free; conditions: blood and plasma
[3] = Ratio of drug level in blood to plasma (unknown origin) at 500 nM incubated for 30 mins by LC-MS/MS analysis; assay type: ADME, cell-free; conditions: blood and plasma
[4] = Ratio of drug level in blood to plasma (unknown origin) at 500 nM measured immediately by LC-MS/MS analysis; assay type: ADME, cell-free; conditions: blood and plasma
[5] = Ratio of drug level in blood to plasma (unknown origin) at 500 nM incubated for 45 mins by LC-MS/MS analysis; assay type: ADME, cell-free; conditions: blood and plasma
[6] = Protein binding in plasma (unknown origin) incubated for 4 hrs by red equilibrium dialysis based LC-MS/MS analysis; assay type: ADME, cell-free; conditions: read-out: PPB
[7] = Stability in rat liver microsomes assessed as hepatic extraction ratio at 10 uM by LC-MS/MS analysis; assay type: ADME, Microsome; conditions: read-out: ERH
[8] = Intrinsic clearance in rat microsome at 10 uM by LC-MS/MS analysis; assay type: ADME; conditions: microsomes
Rattus norvegicus [9] = species on record: Rattus norvegicus; test: Inhibition of rat P-gp ATPase in jejuna mucosa membrane assessed as remaining enzyme activity at 10 to 40 uM using ATP as substrate preincubated for 5 mins followed by substrate addition and measured after 30 mins; assay type: cell membranes
[10] = Metabolic stability in human liver microsomes assessed as remaining compound at 10 uM measured at 45 mins by LC-MS/MS analysis relative to control; assay type: ADME, Microsome; conditions: read-out: Stability
[11] = Intrinsic clearance in human liver at 10 uM by LC-MS/MS analysis; assay type: ADME, tissue-based; conditions: read-out: CLH
[12] = Solubility of compound in water incubated for 5 hrs by LC-MS/MS analysis; assay type: physicochemical
[13] = Metabolic stability in human liver microsomes assessed as remaining compound at 10 uM measured at 15 mins by LC-MS/MS analysis relative to control; assay type: ADME, Microsome; conditions: 0.25 h
[14] = Intrinsic clearance in rat liver at 10 uM by LC-MS/MS analysis; assay type: ADME, tissue-based; conditions: read-out: CLH
[15] = Stability in human liver microsomes assessed as hepatic extraction ratio at 10 uM by LC-MS/MS analysis; assay type: ADME, Microsome; conditions: read-out: ERH
A549 = test: Cytotoxicity against human A549 cells assessed as reduction in cell viability by MTT assay; assay type: functional, cell-based
[16] = Metabolic stability in rat liver microsomes assessed as remaining compound at 10 uM measured at 30 mins by LC-MS/MS analysis relative to control; assay type: ADME, Microsome; conditions: read-out: Stability
[17] = Intrinsic clearance in human microsomes at 10 uM by LC-MS/MS analysis; assay type: ADME, Microsome
[18] = n-Octanol-water partition coefficient, log P of compound incubated for 4 hrs by LC-MS/MS analysis; assay type: physicochemical
[19] = n-Octanol-PBS buffer distribution coefficient, log D of compound incubated for 4 hrs by LC-MS/MS analysis; assay type: physicochemical
Rattus norvegicus [20] = species on record: Rattus norvegicus; test: Inhibition of rat P-gp ATPase in jejuna mucosa membrane at 10 to 40 uM using ATP as substrate preincubated for 5 mins followed by substrate addition and measured after 30 mins relative to control; assay type: cell membranes
[21] = Permeability coefficient of compound incubated for 5 hrs by LC-MS/MS analysis based PAMPA assay; assay type: ADME
[22] = Metabolic stability in human liver microsomes assessed as half life at 10 uM by LC-MS/MS analysis; assay type: ADME, Microsome
[23] = Metabolic stability in human liver microsomes assessed as remaining compound at 10 uM measured at 30 mins by LC-MS/MS analysis relative to control; assay type: ADME, Microsome; conditions: read-out: Stability
[24] = Metabolic stability in rat liver microsomes assessed as remaining compound at 10 uM measured at 45 mins by LC-MS/MS analysis relative to control; assay type: ADME, Microsome; conditions: read-out: Stability
[25] = Metabolic stability in rat liver microsomes assessed as remaining compound at 10 uM measured at 15 mins by LC-MS/MS analysis relative to control; assay type: ADME, Microsome; conditions: read-out: Stability
[26] = Metabolic stability in rat liver microsomes assessed as half life at 10 uM by LC-MS/MS analysis; assay type: ADME, Microsome
Rattus norvegicus [27] = species on record: Rattus norvegicus; test: Inhibition of rat P-gp ATPase in jejuna mucosa membrane assessed as remaining enzyme activity at 20 uM using ATP as substrate preincubated for 5 mins followed by substrate addition and measured after 30 mins; assay type: cell membranes

blood plasma ratio at 1 h, 0.5 µM [1]: 1 | blood plasma ratio at 0.25 h, 0.5 µM [2]: 1.17 | blood plasma ratio at 0.5 h, 0.5 µM [3]: 1.2 | blood plasma ratio at 0 min, 0.5 µM [4]: 1.3 | blood plasma ratio at 0.75 h, 0.5 µM [5]: 1.15
Structure (SMILES): CC(C)NCC(O)COc1ccc(CC(N)=O)cc1 (stereo not drawn) [ATENOLOL]

fraction unbound at 4 h [6]: < 0.1 | blood plasma ratio at 1 h, 0.5 µM [1]: 1.4 | hepatic extraction ratio at 10 µM [7]: 0.41 | CLint [8]: 19 µL/min/mg | Activity (Rattus norvegicus [9]): 6.7 µM/min/µL | remaining at 0.75 h, 10 µM [10]: 73% | CLint scaled at 10 µM [11]: 32.3 mL/min/kg | solubility at 5 h [12]: 6.8 µg/mL (≈ 16.2 µM) | Stability [13]: 73% | blood plasma ratio at 0.25 h, 0.5 µM [2]: 1.11 | CLint scaled at 10 µM [14]: 34 mL/min/kg | hepatic extraction ratio at 10 µM [15]: 0.6 | blood plasma ratio at 0.5 h, 0.5 µM [3]: 1.25 | remaining at 0.5 h, 10 µM [16]: 76% | CLint [17]: 20.6 µL/min/mg | logP at 4 h [18]: 4.06 | logD at 4 h [19]: 0.08 | blood plasma ratio at 0 min, 0.5 µM [4]: 0.9 | inhibition (Rattus norvegicus [20]): 1 to 12% | log Pe [21]: Dose-dependent effect | t1/2 [22]: 1.38 h | remaining at 0.5 h, 10 µM [23]: 73% | blood plasma ratio at 0.75 h, 0.5 µM [5]: 1.35 | remaining at 0.75 h, 10 µM [24]: 76% | remaining at 0.25 h, 10 µM [25]: 76% | half-life at 10 µM [26]: 1.18 h
Structure (SMILES): CCOC(=O)C1=C(C)NC(=O)NC1c1cc2c(cc1OC)OC(C)(CC)C=C2Cl (stereo not drawn)
IC50 (A549): 139 nM

Activity (Rattus norvegicus [27]): 2.8 µM/min/µL
Structure (SMILES): O[C@@H](COc1cccc2ncccc12)CN1CCN([C@@H]2c3ccccc3[C@@H]3[C@H](c4ccccc42)C3(F)F)CC1
